Reference: the NIST ThermoML archive (doi:10.1021/je900194v)

How the values were obtained:
[1] = 101 kPa, Liquid; for viscosity: Capillary tube (Ostwald / Ubbelohde) method; for mass density: Vibrating tube method
[2] = xn = mol fraction of the nth substance listed; settings: 101 kPa, Liquid; for viscosity: Capillary tube (Ostwald / Ubbelohde) method; for mass density: Vibrating tube method

Cc1ccccc1C [1,2-dimethylbenzene]
[1]
Settings | mass density [kg/m3] | viscosity [mPa·s]
298.15 K | 875.08 | 0.758
308.15 K | 866.62 | 0.665
318.15 K | 858.12 | 0.589

Cc1ccccc1C [1,2-dimethylbenzene] + COC(=O)CCCCl
[2], x2 = 0
Settings | mass density [kg/m3] | viscosity [mPa·s]
298.15 K | 875.08 | 0.758
308.15 K | 866.62 | 0.665
318.15 K | 858.12 | 0.589

Cc1cccc(C)c1 [1,3-dimethylbenzene] + COC(=O)CCCCl
[2], x2 = 0
Settings | mass density [kg/m3] | viscosity [mPa·s]
298.15 K | 859.83 | 0.587
308.15 K | 851.19 | 0.524
318.15 K | 842.49 | 0.471

Cc1ccc(C)cc1 [1,4-dimethylbenzene] + COC(=O)CCCCl
[2], x2 = 0
Settings | mass density [kg/m3] | viscosity [mPa·s]
298.15 K | 856.68 | 0.609
308.15 K | 847.96 | 0.541
318.15 K | 839.2 | 0.484

c1ccccc1 [benzene] + COC(=O)CCCCl
[2], x2 = 0
Settings | mass density [kg/m3] | viscosity [mPa·s]
298.15 K | 873.61 | 0.603
308.15 K | 862.28 | 0.533
318.15 K | 852.08 | 0.466

COC(=O)CCCCl [methyl 4-chlorobutanoate] + Cc1ccc(C)cc1
[2]
Settings | mass density, 298.15 K [kg/m3] | mass density, 308.15 K [kg/m3] | mass density, 318.15 K [kg/m3] | viscosity, 298.15 K [mPa·s] | viscosity, 308.15 K [mPa·s] | viscosity, 318.15 K [mPa·s]
x1 = 0.0999 | 882.47 | 873.48 | 864.45 | 0.662 | 0.586 | 0.522
x1 = 0.2001 | 908.43 | 899.17 | 889.87 | 0.714 | 0.629 | 0.561
x1 = 0.3 | 934.33 | 924.84 | 915.3 | 0.775 | 0.679 | 0.6
x1 = 0.4001 | 960.27 | 950.54 | 940.77 | 0.847 | 0.738 | 0.651
x1 = 0.4999 | 986.16 | 976.2 | 966.2 | 0.927 | 0.806 | 0.705
x1 = 0.6 | 1012.09 | 1001.91 | 991.69 | 1.023 | 0.886 | 0.772
x1 = 0.7 | 1038.03 | 1027.62 | 1017.19 | 1.133 | 0.978 | 0.846
x1 = 0.8 | 1063.99 | 1053.37 | 1042.71 | 1.255 | 1.077 | 0.926
x1 = 0.9 | 1090.06 | 1079.25 | 1068.37 | 1.385 | 1.179 | 1.008
x1 = 1 | 1116.24 | 1105.23 | 1094.13 | 1.519 | 1.279 | 1.089

COC(=O)CCCCl [methyl 4-chlorobutanoate] + Cc1cccc(C)c1
[2]
Settings | mass density, 298.15 K [kg/m3] | mass density, 308.15 K [kg/m3] | mass density, 318.15 K [kg/m3] | viscosity, 298.15 K [mPa·s] | viscosity, 308.15 K [mPa·s] | viscosity, 318.15 K [mPa·s]
x1 = 0.0999 | 885.23 | 876.33 | 867.38 | 0.639 | 0.571 | 0.512
x1 = 0.1999 | 910.66 | 901.49 | 892.27 | 0.7 | 0.624 | 0.55
x1 = 0.2999 | 936.14 | 926.72 | 917.26 | 0.769 | 0.674 | 0.596
x1 = 0.399 | 961.41 | 951.74 | 942.03 | 0.843 | 0.737 | 0.649
x1 = 0.4999 | 987.21 | 977.32 | 967.37 | 0.928 | 0.807 | 0.706
x1 = 0.5995 | 1012.73 | 1002.6 | 992.39 | 1.022 | 0.882 | 0.77
x1 = 0.6996 | 1038.43 | 1028.06 | 1017.63 | 1.128 | 0.966 | 0.839
x1 = 0.7992 | 1064.11 | 1053.51 | 1042.83 | 1.238 | 1.062 | 0.92
x1 = 0.8999 | 1090.15 | 1079.3 | 1068.38 | 1.368 | 1.163 | 1.004
x1 = 1 | 1116.24 | 1105.22 | 1094.13 | 1.519 | 1.279 | 1.089

COC(=O)CCCCl [methyl 4-chlorobutanoate] + Cc1ccccc1
[2]
Settings | mass density, 298.15 K [kg/m3] | mass density, 308.15 K [kg/m3] | mass density, 318.15 K [kg/m3] | viscosity, 298.15 K [mPa·s] | viscosity, 308.15 K [mPa·s] | viscosity, 318.15 K [mPa·s]
x1 = 0.1 | 891.28 | 881.71 | 872.09 | 0.614 | 0.551 | 0.486
x1 = 0.2 | 919.47 | 909.69 | 899.87 | 0.68 | 0.599 | 0.53
x1 = 0.3 | 946.73 | 936.79 | 926.77 | 0.753 | 0.662 | 0.582
x1 = 0.4001 | 973.21 | 963.07 | 952.89 | 0.829 | 0.731 | 0.635
x1 = 0.5 | 998.81 | 988.49 | 978.14 | 0.919 | 0.796 | 0.7
x1 = 0.6 | 1023.69 | 1013.23 | 1002.74 | 1.021 | 0.883 | 0.767
x1 = 0.7 | 1047.84 | 1037.22 | 1026.57 | 1.123 | 0.962 | 0.831
x1 = 0.8 | 1071.31 | 1060.54 | 1049.74 | 1.246 | 1.062 | 0.913
x1 = 0.8998 | 1094.05 | 1083.16 | 1072.21 | 1.38 | 1.17 | 1.001
x1 = 1 | 1116.24 | 1105.22 | 1094.13 | 1.519 | 1.279 | 1.089

COC(=O)CCCCl [methyl 4-chlorobutanoate] + Cc1ccccc1C
[2]
Settings | mass density, 298.15 K [kg/m3] | mass density, 308.15 K [kg/m3] | mass density, 318.15 K [kg/m3] | viscosity, 298.15 K [mPa·s] | viscosity, 308.15 K [mPa·s] | viscosity, 318.15 K [mPa·s]
x1 = 0.1 | 899.36 | 890.63 | 881.84 | 0.814 | 0.71 | 0.627
x1 = 0.2001 | 923.55 | 914.54 | 905.46 | 0.872 | 0.757 | 0.688
x1 = 0.3 | 947.67 | 938.39 | 929.03 | 0.935 | 0.808 | 0.707
x1 = 0.3998 | 971.75 | 962.19 | 952.59 | 1.001 | 0.863 | 0.752
x1 = 0.4992 | 995.83 | 985.99 | 976.14 | 1.074 | 0.92 | 0.8
x1 = 0.6 | 1020.27 | 1010.17 | 1000.07 | 1.153 | 0.983 | 0.855
x1 = 0.7 | 1044.53 | 1034.19 | 1023.83 | 1.235 | 1.05 | 0.907
x1 = 0.8 | 1068.71 | 1058.13 | 1047.53 | 1.322 | 1.12 | 0.965
x1 = 0.9 | 1092.68 | 1081.88 | 1071.02 | 1.415 | 1.194 | 1.025
x1 = 1 | 1116.24 | 1105.22 | 1094.13 | 1.519 | 1.279 | 1.089

COC(=O)CCCCl [methyl 4-chlorobutanoate] + c1ccccc1
[2]
Settings | mass density, 298.15 K [kg/m3] | mass density, 308.15 K [kg/m3] | mass density, 318.15 K [kg/m3] | viscosity, 298.15 K [mPa·s] | viscosity, 308.15 K [mPa·s] | viscosity, 318.15 K [mPa·s]
x1 = 0.1 | 905.57 | 894.74 | 883.87 | 0.669 | 0.579 | 0.507
x1 = 0.2001 | 935.29 | 924.42 | 913.49 | 0.731 | 0.634 | 0.553
x1 = 0.3 | 962.99 | 952.12 | 941.13 | 0.799 | 0.69 | 0.601
x1 = 0.4001 | 989.08 | 978.2 | 967.18 | 0.875 | 0.754 | 0.661
x1 = 0.5 | 1013.66 | 1002.77 | 991.75 | 0.96 | 0.828 | 0.719
x1 = 0.5999 | 1036.89 | 1026.01 | 1014.99 | 1.054 | 0.907 | 0.785
x1 = 0.7 | 1058.82 | 1047.97 | 1036.94 | 1.157 | 0.99 | 0.853
x1 = 0.8 | 1079.42 | 1068.49 | 1057.55 | 1.271 | 1.08 | 0.927
x1 = 0.9 | 1098.6 | 1087.62 | 1076.65 | 1.391 | 1.18 | 1.007
x1 = 1 | 1116.24 | 1105.22 | 1094.13 | 1.519 | 1.279 | 1.089

Cc1ccccc1 [toluene] + COC(=O)CCCCl
[2], x2 = 0
Settings | mass density [kg/m3] | viscosity [mPa·s]
298.15 K | 862.18 | 0.561
308.15 K | 852.81 | 0.499
318.15 K | 843.4 | 0.446
